# Data from ChEMBL document CHEMBL1201862, “PubChem BioAssay data set” (2004).
# Calls of active or inactive are those of the source.
# Key:
# [1] = biological target: T1, Cytochrome P450 1A2 (Homo sapiens, UniProt P05177);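 note: PubChem cytochrome P450 panel assay, CYP1A2 panel member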
# T1 sequence (P05177 whole entry): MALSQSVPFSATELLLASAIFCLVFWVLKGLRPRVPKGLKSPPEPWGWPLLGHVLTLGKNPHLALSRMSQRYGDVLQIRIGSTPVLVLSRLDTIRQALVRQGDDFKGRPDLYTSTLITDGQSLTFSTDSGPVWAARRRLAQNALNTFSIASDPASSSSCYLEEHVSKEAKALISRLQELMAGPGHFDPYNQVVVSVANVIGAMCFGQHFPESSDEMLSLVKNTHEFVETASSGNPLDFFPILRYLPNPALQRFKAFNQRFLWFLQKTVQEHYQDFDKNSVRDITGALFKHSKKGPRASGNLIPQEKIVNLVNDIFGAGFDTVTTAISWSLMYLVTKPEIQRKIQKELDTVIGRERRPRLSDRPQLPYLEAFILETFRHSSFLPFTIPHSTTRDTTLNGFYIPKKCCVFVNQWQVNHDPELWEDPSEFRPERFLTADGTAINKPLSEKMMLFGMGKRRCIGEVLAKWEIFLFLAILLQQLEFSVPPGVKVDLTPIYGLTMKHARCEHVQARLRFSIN
# [2] = biological target: Cytochrome P450 2C19 (Homo sapiens, UniProt P33261); test: Cytochrome panel assay with activity outcomes. Panel member name: p450-cyp2c19 Compounds with AC50 equal or less than 10 uM are considered active; assay type: functional; settings: read-out: AC50
# Chain of Cytochrome P450 2C19 (P33261 whole entry): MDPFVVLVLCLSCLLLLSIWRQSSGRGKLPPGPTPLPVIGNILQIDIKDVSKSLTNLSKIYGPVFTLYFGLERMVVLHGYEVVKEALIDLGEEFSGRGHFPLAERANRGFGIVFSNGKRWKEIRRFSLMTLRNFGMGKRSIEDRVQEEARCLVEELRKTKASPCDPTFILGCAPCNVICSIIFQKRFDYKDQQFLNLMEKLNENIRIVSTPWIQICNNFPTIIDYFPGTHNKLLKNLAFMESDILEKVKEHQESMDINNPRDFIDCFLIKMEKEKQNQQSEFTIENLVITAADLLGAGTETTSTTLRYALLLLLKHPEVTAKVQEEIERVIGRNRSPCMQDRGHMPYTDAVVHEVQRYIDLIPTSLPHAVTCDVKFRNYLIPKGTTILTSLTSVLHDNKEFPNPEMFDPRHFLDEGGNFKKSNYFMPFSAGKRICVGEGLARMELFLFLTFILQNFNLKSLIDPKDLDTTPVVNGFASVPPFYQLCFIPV
# [3] = Luminescence Cell-Based Dose Confirmation HTS to Identify Inhibitors of Platelet Dense Granule Release. [Related pubchem assays: 1663 (Primary HTS), 1678 (Summary of Project)]; assay type: functional
# [4] = biological target: Luciferin 4-monooxygenase (Photinus pyralis, UniProt P08659); test: firefly luciferase enzyme inhibitors, dose response, biochemical, luminescence (AID 1891)
# Chain of Luciferin 4-monooxygenase (P08659 whole entry): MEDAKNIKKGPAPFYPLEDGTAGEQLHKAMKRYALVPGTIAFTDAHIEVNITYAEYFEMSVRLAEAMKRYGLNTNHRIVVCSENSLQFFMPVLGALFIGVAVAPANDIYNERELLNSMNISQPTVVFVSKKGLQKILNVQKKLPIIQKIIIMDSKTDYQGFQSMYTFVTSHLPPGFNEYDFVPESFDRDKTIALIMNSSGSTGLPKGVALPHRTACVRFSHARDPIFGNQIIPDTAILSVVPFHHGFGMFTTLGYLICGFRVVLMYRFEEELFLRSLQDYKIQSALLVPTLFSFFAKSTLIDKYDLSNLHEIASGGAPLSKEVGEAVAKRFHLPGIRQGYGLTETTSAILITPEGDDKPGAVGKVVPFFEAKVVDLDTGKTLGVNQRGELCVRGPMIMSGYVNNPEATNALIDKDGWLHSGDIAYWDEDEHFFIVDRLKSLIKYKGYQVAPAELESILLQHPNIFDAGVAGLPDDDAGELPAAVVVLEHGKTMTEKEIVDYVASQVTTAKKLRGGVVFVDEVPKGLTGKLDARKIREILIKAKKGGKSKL
# [5] = biological target: Ras and Rab interactor 1/Tyrosine-protein kinase ABL1 (Homo sapiens, UniProt P00519+Q13671); assay type: functional;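 note: biochemical TR-FRET dose-response test measuring inhibition of binding between Rin1 and Abl proteins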
# Chain of Ras and Rab interactor 1/Tyrosine-protein kinase ABL1 (P00519 whole entry): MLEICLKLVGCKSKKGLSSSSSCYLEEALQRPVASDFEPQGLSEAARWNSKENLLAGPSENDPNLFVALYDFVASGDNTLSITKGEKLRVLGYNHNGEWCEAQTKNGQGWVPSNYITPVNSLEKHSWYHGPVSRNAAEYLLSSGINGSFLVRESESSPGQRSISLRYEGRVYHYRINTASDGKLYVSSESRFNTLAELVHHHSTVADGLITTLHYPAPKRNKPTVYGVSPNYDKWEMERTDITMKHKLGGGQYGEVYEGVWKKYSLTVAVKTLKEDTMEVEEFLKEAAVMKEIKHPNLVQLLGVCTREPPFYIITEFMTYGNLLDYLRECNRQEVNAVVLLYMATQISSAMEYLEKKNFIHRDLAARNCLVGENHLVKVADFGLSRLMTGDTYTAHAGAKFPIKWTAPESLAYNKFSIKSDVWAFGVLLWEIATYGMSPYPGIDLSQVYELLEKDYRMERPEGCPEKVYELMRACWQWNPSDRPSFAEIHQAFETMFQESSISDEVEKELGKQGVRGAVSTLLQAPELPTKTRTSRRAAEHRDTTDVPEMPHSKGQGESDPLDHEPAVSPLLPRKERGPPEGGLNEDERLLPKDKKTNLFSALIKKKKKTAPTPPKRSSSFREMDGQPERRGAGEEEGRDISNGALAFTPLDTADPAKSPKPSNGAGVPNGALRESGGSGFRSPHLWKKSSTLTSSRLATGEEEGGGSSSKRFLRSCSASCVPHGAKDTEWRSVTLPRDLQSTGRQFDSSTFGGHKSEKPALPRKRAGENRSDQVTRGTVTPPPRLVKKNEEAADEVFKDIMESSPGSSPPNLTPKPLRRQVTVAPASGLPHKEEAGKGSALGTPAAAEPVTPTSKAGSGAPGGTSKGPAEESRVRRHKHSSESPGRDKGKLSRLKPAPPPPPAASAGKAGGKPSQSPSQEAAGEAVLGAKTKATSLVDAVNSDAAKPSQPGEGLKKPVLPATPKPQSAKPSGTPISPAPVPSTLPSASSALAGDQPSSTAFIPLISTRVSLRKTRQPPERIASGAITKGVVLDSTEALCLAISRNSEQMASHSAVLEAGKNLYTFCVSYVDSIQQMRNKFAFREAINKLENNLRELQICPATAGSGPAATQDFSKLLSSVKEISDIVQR
# Chain of Ras and Rab interactor 1/Tyrosine-protein kinase ABL1 (Q13671 whole entry): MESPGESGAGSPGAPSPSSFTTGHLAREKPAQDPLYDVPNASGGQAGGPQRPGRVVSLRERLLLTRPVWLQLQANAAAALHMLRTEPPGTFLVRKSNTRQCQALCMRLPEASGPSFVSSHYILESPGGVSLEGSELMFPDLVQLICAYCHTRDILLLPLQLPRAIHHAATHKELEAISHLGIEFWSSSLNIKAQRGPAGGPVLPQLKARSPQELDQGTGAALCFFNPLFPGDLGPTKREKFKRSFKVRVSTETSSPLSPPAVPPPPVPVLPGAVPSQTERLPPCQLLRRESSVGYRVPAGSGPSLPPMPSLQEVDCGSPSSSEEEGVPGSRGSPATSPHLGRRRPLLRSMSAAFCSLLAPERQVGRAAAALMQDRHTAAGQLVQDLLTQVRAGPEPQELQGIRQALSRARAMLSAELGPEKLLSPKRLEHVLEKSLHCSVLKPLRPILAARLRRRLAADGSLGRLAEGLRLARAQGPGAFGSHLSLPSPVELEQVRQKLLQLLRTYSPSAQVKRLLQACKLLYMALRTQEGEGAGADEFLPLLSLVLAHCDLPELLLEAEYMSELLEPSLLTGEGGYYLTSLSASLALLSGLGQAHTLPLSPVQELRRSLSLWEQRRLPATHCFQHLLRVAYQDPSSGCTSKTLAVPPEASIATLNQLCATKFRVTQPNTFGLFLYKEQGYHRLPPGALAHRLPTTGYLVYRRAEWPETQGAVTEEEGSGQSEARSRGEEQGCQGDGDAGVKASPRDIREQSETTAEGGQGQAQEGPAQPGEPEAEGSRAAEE
# [6] = biological target: Cytochrome P450 3A4 (Homo sapiens, UniProt P08684);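 note: CYP3A4 tested as one member of a cytochrome P450 panel screen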
# Chain of Cytochrome P450 3A4 (P08684 whole entry): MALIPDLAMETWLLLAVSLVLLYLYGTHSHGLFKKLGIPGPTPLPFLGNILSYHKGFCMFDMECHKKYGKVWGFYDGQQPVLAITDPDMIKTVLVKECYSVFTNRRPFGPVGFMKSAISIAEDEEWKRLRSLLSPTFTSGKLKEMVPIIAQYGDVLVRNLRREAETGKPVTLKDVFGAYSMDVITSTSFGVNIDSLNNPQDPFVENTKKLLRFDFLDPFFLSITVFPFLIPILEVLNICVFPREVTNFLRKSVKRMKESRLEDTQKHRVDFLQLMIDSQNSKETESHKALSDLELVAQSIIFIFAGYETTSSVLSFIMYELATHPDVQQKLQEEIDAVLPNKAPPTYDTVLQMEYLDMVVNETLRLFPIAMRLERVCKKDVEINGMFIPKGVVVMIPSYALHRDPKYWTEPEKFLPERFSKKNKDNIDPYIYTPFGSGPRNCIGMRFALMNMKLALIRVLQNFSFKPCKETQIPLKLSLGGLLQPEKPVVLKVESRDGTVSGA
# [7] = biological target: Genome polyprotein (dengue virus type 2, UniProt P29990); test: Dengue-2 NS5 methyltransferase inhibitors, primary screen, biochemical, confirmation dose response (AID 588689); assay type: functional
# Chain of Genome polyprotein (P29990 2492-3391 limits assumed): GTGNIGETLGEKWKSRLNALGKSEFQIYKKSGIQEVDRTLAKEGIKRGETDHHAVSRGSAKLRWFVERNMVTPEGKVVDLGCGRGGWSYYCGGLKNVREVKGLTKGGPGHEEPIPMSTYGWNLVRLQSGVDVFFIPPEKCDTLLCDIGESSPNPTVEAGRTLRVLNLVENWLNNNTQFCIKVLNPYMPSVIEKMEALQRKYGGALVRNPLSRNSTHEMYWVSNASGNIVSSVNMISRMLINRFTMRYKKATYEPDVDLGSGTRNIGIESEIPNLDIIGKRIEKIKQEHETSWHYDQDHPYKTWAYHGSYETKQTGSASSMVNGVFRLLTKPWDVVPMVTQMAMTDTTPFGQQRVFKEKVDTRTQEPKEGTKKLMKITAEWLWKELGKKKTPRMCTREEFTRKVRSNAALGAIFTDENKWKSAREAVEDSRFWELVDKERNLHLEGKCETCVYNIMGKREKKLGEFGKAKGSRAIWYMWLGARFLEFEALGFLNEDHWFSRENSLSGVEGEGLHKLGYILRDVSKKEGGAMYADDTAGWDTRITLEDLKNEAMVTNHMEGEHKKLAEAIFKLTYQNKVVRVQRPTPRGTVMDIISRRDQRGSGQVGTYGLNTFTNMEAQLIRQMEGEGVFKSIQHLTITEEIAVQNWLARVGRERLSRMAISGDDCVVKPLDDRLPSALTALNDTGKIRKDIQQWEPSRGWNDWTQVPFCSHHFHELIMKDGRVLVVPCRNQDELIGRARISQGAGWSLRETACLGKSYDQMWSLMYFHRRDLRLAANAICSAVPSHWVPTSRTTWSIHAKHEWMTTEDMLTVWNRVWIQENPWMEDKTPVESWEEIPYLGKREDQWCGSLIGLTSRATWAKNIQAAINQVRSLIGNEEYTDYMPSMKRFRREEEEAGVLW
# [8] = biological target: T2, Protein RecA (Mycobacterium tuberculosis, UniProt P9WHJ3); test: Fluorescence Cell-Free Homogeneous Dose Retest to Identify Inhibitors of RecA-Intein Splicing Activity. [Related pubchem assays (depositor defined):AID2097, AID2223, AID489010, AID492950]; assay type: functional
# T2 sequence (P9WHJ3 whole entry): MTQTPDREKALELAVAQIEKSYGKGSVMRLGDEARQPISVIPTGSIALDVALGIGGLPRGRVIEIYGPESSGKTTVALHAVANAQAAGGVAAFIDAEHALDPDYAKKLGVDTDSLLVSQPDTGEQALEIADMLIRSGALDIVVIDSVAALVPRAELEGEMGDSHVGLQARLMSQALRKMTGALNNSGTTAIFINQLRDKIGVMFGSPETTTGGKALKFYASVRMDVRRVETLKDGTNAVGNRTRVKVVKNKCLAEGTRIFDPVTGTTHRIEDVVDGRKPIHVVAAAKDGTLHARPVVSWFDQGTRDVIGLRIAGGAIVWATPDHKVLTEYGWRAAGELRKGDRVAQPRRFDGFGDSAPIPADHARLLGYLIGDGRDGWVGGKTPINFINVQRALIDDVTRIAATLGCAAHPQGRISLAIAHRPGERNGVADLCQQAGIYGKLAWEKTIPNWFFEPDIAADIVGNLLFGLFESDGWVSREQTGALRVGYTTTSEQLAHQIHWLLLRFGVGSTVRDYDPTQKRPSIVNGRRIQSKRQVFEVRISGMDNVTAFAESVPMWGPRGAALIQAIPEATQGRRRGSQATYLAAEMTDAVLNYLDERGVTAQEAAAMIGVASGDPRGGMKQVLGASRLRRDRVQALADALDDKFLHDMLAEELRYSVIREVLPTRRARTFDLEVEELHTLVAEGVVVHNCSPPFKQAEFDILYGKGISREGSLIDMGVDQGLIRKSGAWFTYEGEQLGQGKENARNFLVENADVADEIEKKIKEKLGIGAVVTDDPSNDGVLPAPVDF
# [9] = biological target: FAD-linked sulfhydryl oxidase ALR (Homo sapiens, UniProt P55789); test: inhibitors of human ALR sulfhydryl oxidase, dose response, biochemical, H2O2 detection, luminescence, cherry-pick (AID 493248)
# Chain of FAD-linked sulfhydryl oxidase ALR (P55789 whole entry): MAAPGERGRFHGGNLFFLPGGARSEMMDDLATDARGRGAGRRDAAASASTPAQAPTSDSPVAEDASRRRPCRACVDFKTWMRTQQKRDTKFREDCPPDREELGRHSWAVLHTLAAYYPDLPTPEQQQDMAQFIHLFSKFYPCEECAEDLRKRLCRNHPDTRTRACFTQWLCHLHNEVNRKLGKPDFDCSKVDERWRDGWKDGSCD
# [10] = biological target: T3, Replicative DNA helicase DnaB (Mycobacterium tuberculosis, UniProt P9WMR3); test: DnaB intein splicing inhibitors, dose response, biochemical, cell-free fluorescence (AID 449749); assay type: functional
# T3 sequence (P9WMR3 whole entry): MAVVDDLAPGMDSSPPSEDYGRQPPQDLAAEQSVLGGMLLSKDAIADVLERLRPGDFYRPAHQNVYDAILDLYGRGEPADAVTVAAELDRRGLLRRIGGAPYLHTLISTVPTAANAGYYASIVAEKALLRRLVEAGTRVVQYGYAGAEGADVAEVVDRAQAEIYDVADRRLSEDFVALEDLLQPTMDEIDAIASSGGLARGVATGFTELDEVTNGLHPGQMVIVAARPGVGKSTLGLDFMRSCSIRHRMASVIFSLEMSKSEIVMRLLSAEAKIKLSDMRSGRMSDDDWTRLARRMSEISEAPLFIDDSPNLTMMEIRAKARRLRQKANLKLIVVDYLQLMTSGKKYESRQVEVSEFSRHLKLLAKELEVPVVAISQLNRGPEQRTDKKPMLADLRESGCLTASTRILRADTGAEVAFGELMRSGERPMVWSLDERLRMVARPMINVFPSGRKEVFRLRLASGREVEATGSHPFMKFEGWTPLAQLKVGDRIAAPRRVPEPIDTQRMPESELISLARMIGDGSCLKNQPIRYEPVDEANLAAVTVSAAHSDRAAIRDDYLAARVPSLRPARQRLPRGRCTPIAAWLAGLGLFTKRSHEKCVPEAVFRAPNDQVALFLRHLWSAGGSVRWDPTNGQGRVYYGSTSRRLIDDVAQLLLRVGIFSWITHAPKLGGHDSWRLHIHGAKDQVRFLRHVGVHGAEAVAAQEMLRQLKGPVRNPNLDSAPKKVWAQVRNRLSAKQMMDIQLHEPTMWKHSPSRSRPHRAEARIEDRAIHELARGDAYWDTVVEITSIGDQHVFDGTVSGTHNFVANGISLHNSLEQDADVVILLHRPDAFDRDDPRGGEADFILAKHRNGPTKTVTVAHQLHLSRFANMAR
# [11] = biological target: T4, Orexin receptor type 2 (Homo sapiens, UniProt O43614); test: Counterscreen assay for antagonists of the orexin 1 receptor (OX1R; HCRTR1): Homogeneous Time Resolved Fluorescence (HTRF)-based cell-based dose response assay for antagonists of the orexin 2 receptor (OX2R; HCRTR2), run by assay provider.; assay type: functional
# T4 sequence (O43614 whole entry): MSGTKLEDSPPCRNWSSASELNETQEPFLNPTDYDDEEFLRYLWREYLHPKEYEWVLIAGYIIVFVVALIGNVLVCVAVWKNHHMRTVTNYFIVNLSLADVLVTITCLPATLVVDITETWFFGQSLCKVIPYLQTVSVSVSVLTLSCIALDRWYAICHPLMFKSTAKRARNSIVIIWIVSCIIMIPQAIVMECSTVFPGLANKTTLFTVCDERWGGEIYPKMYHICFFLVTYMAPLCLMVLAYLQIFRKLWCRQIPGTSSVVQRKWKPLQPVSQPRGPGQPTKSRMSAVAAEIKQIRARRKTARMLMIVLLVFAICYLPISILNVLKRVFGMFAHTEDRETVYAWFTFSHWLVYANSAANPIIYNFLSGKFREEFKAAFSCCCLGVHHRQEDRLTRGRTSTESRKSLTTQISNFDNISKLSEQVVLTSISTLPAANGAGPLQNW
# [12] = (§1) Counterscreen for antagonists of the orexin 1 receptor (OX1R; HCRTR1): Fluorescence-based cell-based high throughput dose response assay to identify antagonists of the parental CHO cell line. [Related pubchem assays (depositor defined):AID434989, AID435008, AID463079, AID485270, AID492963, AID492964, AID492965, AID493232, AID504699, AID504701]; assay type: functional
# [13] = biological target: T5, Orexin/Hypocretin receptor type 1 (Homo sapiens, UniProt O43613); test: Homogeneous Time Resolved Fluorescence (HTRF)-based cell-based high throughput dose response assay for antagonists of the orexin 1 receptor (OX1R; HCRTR1). [Related pubchem assays (depositor defined):AID434989, AID435008, AID463079, AID485270, AID492963, AID492964, AID492965, AID493232, AID504717, AID504718]; assay type: functional
# T5 sequence (O43613 whole entry): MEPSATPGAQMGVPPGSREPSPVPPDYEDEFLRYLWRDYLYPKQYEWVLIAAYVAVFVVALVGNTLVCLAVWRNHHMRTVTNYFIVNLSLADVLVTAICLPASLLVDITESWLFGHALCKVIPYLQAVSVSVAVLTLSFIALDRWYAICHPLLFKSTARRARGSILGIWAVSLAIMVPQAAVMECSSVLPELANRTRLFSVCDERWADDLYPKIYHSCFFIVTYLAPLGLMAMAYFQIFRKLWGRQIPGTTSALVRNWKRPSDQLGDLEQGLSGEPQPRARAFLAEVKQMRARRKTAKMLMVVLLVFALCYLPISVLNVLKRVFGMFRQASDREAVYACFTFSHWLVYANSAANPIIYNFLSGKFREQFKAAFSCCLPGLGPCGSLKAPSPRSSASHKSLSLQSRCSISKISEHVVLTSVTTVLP
# [14] = biological target: T5, Orexin/Hypocretin receptor type 1; test: Fluorescence-based cell-based high throughput dose response assay for antagonists of the orexin 1 receptor (OX1R; HCRTR1). [Related pubchem assays (depositor defined):AID434989, AID435008, AID463079, AID485270, AID492963, AID492964, AID492965, AID493232, AID504717, AID504718]; assay type: functional
# [15] = system: CHO-K1; test: as §1, with “Homogeneous time resolved fluorescence (HTRF)-based” for “Fluorescence-based”, “cell-based” for “cell-based high throughput”, “CHO-K1” for “CHO”; assay type: functional; settings: Cricetulus griseus;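 note: potency for inhibition of ATP-stimulated IP1 production as antagonists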
# [16] = biological target: T4, Orexin receptor type 2; test: Counterscreen assay for antagonists of the orexin 1 receptor (OX1R; HCRTR1): Fluorescence-based cell-based dose response assay for antagonists of the orexin 2 receptor (OX2R; HCRTR2), run by assay provider.; assay type: functional
# [17] = biological target: T6, Aurora kinase A (Homo sapiens, UniProt O14965); assay type: functional;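 note: value from the Navigating the Kinome kinase panel profiling, panel entry STK6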
# T6 sequence (O14965 whole entry): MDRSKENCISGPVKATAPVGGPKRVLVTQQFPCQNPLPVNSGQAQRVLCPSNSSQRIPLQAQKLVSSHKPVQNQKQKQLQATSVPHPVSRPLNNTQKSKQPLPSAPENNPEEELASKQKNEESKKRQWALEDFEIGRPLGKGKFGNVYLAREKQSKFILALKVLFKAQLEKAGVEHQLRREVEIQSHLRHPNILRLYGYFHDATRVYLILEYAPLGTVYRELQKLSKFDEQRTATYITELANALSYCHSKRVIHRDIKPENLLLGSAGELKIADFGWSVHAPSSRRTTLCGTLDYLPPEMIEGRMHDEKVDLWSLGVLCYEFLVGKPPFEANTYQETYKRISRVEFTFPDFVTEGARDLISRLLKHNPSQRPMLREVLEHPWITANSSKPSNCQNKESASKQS
# [18] = biological target: Aurora kinase B (Homo sapiens, UniProt Q96GD4); assay type: functional
# Chain of Aurora kinase B (Q96GD4 whole entry): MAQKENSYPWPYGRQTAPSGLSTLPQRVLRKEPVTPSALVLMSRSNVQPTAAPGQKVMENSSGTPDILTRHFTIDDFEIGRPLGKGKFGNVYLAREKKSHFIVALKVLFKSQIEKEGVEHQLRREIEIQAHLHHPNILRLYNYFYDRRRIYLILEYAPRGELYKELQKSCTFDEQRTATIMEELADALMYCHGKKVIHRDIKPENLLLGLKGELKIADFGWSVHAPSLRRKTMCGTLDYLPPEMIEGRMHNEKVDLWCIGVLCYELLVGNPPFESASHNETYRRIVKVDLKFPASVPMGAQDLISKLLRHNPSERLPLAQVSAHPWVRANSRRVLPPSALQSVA
SMILES,IC50 [11],IC50 [12],IC50 [13],IC50 [14],IC50 [15],IC50 [16],also measured
CCOC(=O)N1CCC(NC(=O)CCc2nc(C3=CCN(C)CC3)no2)CC1,,,,,,,AC50 [1]: 1 µM (inconclusive); AC50 [2]: 11.2 µM (inconclusive); EC50 [3]: > 112 µM (not active); EC50 [4]: > 112 µM (not active); IC50 [5]: 5.11 µM (active); AC50 [6]: 25.1 µM (inconclusive)
CC1=NN(Cc2ccccc2)C(=O)C1C(c1ccccc1)C(C#N)C#N (centres undefined),,,,,,,IC50 [7]: 55.4 µM (active); EC50 [8]: 2.22 µM (active); AC50 [9]: 5.37 µM (active); AC50 [10]: 3.54 µM (active)
O=C(N=Nc1c(O)[nH]c2ccccc12)c1cccc(S(=O)(=O)Nc2ccccc2Cl)c1,> 50 µM (inactive),> 49.8 µM (inactive),1.01 µM (active),> 49.8 µM (inactive),> 66.2 µM (inactive),> 88.8 µM (inactive),
CC(C)(O)c1cc2ccc(C#Cc3ccsc3)cc2c(=O)o1,> 50 µM (inactive),> 49.7 µM (inactive),4.32 µM (active),9.4 µM (active),> 66.2 µM (inactive),> 88.8 µM (inactive),
CC(Nc1cncc(-n2cnc3ccccc32)n1)c1ccc(F)cc1 (centres undefined),,,,,,,Ki [17]: 1.26 µM (active); Ki [18]: 79.4 nM (active)
